Values quoted from earlier work as cited in patent US20260166131A1, “METHOD FOR PROMOTING PATHOLOGICAL TDP-43 PROTEIN DEGRADATION, AND DRUG” (TALENGEN INTERNATIONAL LIMITED, priority 2022, published 2026).
Values joined by “and” are separate entries in the source; they are usually repeats but may differ in a detail not shown here. Equal entries are not always repeated. Where two headings read alike, the source gives them in different places.

Tested on: ALS patients
Details: for ALSFRS-R score before dosing: literature
[1] = Edaravone 6 months, intravenous injection
[2] = Riluzole 6 months, taking orally

| Structure (SMILES) | ALSFRS-R score after dosing [1] | ALSFRS-R scoring change [1] | ALSFRS-R score before dosing (Edaravone) | ALSFRS-R score after dosing [2] | ALSFRS-R scoring change [2] | ALSFRS-R score before dosing (Riluzole) |
| --- | --- | --- | --- | --- | --- | --- |
| CC1=NN(c2ccccc2)C(=O)C1 [Edaravone] | 36.89 | −5.01±0.64 points and −5.01 points | 41.9 | – | – | – |
| Nc1nc2ccc(OC(F)(F)F)cc2s1 [Riluzole] | – | – | – | 33.2 | −7.0+7.1 points and −7.0 points | 40.2 |
